Results as given in patent publication US8518912B2, “Phosphonic acid derivates and their use as P2Y12 receptor antagonists” (Actelion Pharmaceuticals Ltd., priority 2008, dated 2013).

Each compound was assayed against T1, human P2Y12 receptor (Homo sapiens, UniProt Q9H244) (assay: P2Y12 receptor binding assay). Settings: CHO cells with recombinant human P2Y12 receptor; tritium-labeled 2-methyl-S-ADP; 2 hours at RT.
T1 construct: expressed in transfected cells; host or cells: Chinese Hamster Ovary (CHO) cells
T1 sequence (Q9H244 whole entry): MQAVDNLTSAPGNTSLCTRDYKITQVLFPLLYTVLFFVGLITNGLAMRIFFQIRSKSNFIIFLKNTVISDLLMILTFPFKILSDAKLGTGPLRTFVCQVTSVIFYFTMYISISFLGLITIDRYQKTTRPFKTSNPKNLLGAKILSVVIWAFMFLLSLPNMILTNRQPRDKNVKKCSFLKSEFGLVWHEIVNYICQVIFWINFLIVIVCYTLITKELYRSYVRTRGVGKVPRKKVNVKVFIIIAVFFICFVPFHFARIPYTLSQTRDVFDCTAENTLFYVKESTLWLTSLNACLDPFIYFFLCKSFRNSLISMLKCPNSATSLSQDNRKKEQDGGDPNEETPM
Procedure: Chinese Hamster Ovary (CHO) cells with recombinant expression of the human P2Y12 receptor were cultured in 24 well cell-culture plates. Cells were washed three times with binding buffer (50 mM Tris pH 7.4, 100 mM NaCl, […], 0.5% BSA). The cells were then incubated with 0.5 ml per well binding buffer containing tritium-labeled 2-methyl-thio-adenosine 5′-diphosphate (2-methyl-S-ADP) (between 100,000 and 300,000 dpm per well) and various concentrations of test compounds. After incubation at RT for 2 hours, cells were washed three times with binding buffer. Then, cells were solubilized by addition of 0.5 ml solubilization buffer (SDS, NaOH, EDTA). The content of each well was then transferred into beta-counter vials and 2.0 ml of Ultima Gold Scintillation liquid was added.
`CCCCOC(=O)N1CCN(C(=O)[C@H](CP(=O)(N[C@H](C(=O)OC)c2ccccc2)N[C@H](C(=O)OC)c2ccccc2)NC(=O)c2cc(N3CC[C@H](OC)C3)nc(-c3ccccc3)n2)CC1` [Example 88, N,N′-Bis-((S)-1-methoxycarbonyl-1-phenyl-methyl)-2-{(R)-[6-((S)-3-methoxy-pyrrolidin-1-yl)-2-phenyl-pyrimidine-4-carbonyl]-amino}-3-oxo-3-(4-butoxy-carbonyl-piperazin-1-yl)-propyl-phosphonic acid diamide] gave an IC50 of 0.022 µM. For `CCCCOC(=O)N1CCN(C(=O)[C@H](CP(=O)(N[C@@H](C)C(=O)OC)N[C@@H](C)C(=O)OC)NC(=O)c2cc(N3CC[C@H](OC)C3)nc(-c3ccccc3)n2)CC1` [Example 89, N,N′-Bis-((S)-1-methoxycarbonyl-ethyl)-2-{(R)-[6-((S)-3-methoxy-pyrrolidin-1-yl)-2-phenyl-pyrimidine-4-carbonyl]-amino}-3-oxo-3-(4-butoxy-carbonyl-piperazin-1-yl)-propyl-phosphonic acid diamide], the IC50 was 0.162 µM. `CCCCOC(=O)N1CCN(C(=O)[C@H](CP(=O)(NC(C)(C)C(=O)OCC)NC(C)(C)C(=O)OCC)NC(=O)c2cc(N3CC[C@H](OC)C3)nc(-c3ccccc3)n2)CC1` [Example 92, N,N′-Bis-(2-ethoxycarbonyl-prop-2-yl)-2-{(R)-[6-((S)-3-methoxy-pyrrolidin-1-yl)-2-phenyl-pyrimidine-4-carbonyl]-amino}-3-oxo-3-(4-butoxy-carbonyl-piperazin-1-yl)-propyl-phosphonic acid diamide] showed an IC50 of 0.042 µM. Work on `CCCCOC(=O)N1CCN(C(=O)[C@H](CP(=O)(OCOC(=O)OC)OCOC(=O)OC)NC(=O)c2cc(N3CC[C@H](OC)C3)nc(-c3ccccc3)n2)CC1` [Example 93, 4-((R)-3-[Bis-(methoxycarbonyloxy-methoxy)-phosphoryl]-2-{[6-((S)-3-methoxy-pyrrolidin-1-yl)-2-phenyl-pyrimidine-4-carbonyl]-amino}-propionyl)-piperazine-1-carboxylic acid butyl ester] yielded an IC50 of 0.0035 µM. In the case of `CCCCOC(=O)N1CCN(C(=O)[C@H](CP(=O)(OCOC(=O)OC(C)C)OCOC(=O)OC(C)C)NC(=O)c2cc(N3CC[C@H](OC)C3)nc(-c3ccccc3)n2)CC1` [Example 95, 4-((R)-3-[Bis-(isopropoxycarbonyloxy-methoxy)-phosphoryl]-2-{[6-((S)-3-methoxy-pyrrolidin-1-yl)-2-phenyl-pyrimidine-4-carbonyl]-amino}-propionyl)-piperazine-1-carboxylic acid butyl ester], the IC50 is reported as 0.034 µM. `CCCCOC(=O)N1CCN(C(=O)[C@H](CP(=O)(OCc2oc(=O)oc2C)OCc2oc(=O)oc2C)NC(=O)c2cc(N3CC[C@H](OC)C3)nc(-c3ccccc3)n2)CC1` [Example 101, 4-((R)-3-[Bis-(5-methyl-2-oxo-[1,3]dioxol-4-ylmethoxy)-phosphoryl]-2-{[6-((S)-3-methoxy-pyrrolidin-1-yl)-2-phenyl-pyrimidine-4-carbonyl]-amino}-propionyl)-piperazine-1-carboxylic acid butyl ester] gave an IC50 of 0.0032 µM. `CCCCOC(=O)N1CCN(C(=O)[C@H](CP(=O)(O[C@@H](C)C(=O)OCC)O[C@@H](C)C(=O)OCC)NC(=O)c2cc(N3CC[C@H](OC)C3)nc(-c3ccccc3)n2)CC1` [Example 107, 4-((R)-3-[Bis-((S)-1-ethoxycarbonyl-ethoxy)-phosphoryl]-2-{[6-((S)-3-methoxy-pyrrolidin-1-yl)-2-phenyl-pyrimidine-4-carbonyl]-amino}-propionyl)-piperazine-1-carboxylic acid butyl ester] was tested, and the IC50 was 0.153 µM. In the case of `CCCCOC(=O)N1CCN(C(=O)[C@H](CP2(=O)OCCCO2)NC(=O)c2cc(N3CC[C@H](OC)C3)nc(-c3ccccc3)n2)CC1` [Example 109, 4-[(R)-2-{[6-((S)-3-Methoxy-pyrrolidin-1-yl)-2-phenyl-pyrimidine-4-carbonyl]-amino}-3-(2-oxo-2λ^5-[1,3,2]dioxaphosphinan-2-yl)-propionyl]piperazine-1-carboxylic acid butyl ester], the IC50 is reported as 0.208 µM.
